Source: patent publication US5763470A, “Benzopyran compounds and methods for their use” (Sugen Inc., priority 1995, dated 1998)

Key:
Assay type in all cases: cell-based
MCF7 cells = experiment: MCF-7 SRB Growth Assay; details: Homo sapiens, MCF7, 96 h; 10% FBS; 4 days; read-out: Cell Growth Assays, MCF7 10% FBS
Method: Assay 1: MCF-7 RB Growth Assay. MCF-7 cells are seeded at 2000 cells/well in a 96-well flat bottom plate in normal growth media, which was 10% FBS/RPMI supplemented with 2 mM Glutamine. The plate of cells is incubated for about 24 hours at 37° C. after which it receives an equal volume of compound dilution per well making the total volume per well 200 μl. The compound is prepared at 2 times the desired highest final concentration and serially diluted in the normal growth media in a 96-well round bottom plate and then transferred to plate of cells. DMSO serves as the vector control up to 0.2% as final concentration. The cells are then incubated at 37° C. in a humidified 5% CO2 incubator. Four days following dosing of compound, the media is 15 discarded and 200 μl/well of ice-cold 10% TCA (Trichloroacetic Acid) is added to fix cells. After 60 minutes at 4° C., the TCA is discarded and the plate is rinsed 5 times with water. The plate is then air-dried and 100 μl/well of 0.4% SRB (Sulforhodamine B from Sigma) 20 in 1% Acetic Acid is added to stain cells for 10 minutes at room temperature. The SRB is discarded and the plate is rinsed 5 times with 1% Acetic Acid. After the plate is completely dried, 100 μl/well of 10 mM Tris-base is added to solubilize the dye. After 5 to 10 minutes, the plate is read on a Dynatech ELISA Plate Reader at dual wavelengths at 570 nm and 630 nm. […]

NIH3T3C7 cells = experiment: 3T3/HER2 Cell Growth Assay, 3T3 control cells (beside 3T3 HER-2); details: 96 h; 10% FBS; column beside 3T3 HER-2; 4 days; read-out: Cell Growth Assays, 3T3 10% FBS
Method: (§1) The NIH3T3 growth assay, using cell lines capable of expressing HER2, was carried out as follows:
(§2) m. NIH3T3C7 cells in 10% CS+2 mM glutamine DMEM HER2C7 cells in 2% FBS+2 mM glutamine DMEM
(§3) 1. HER2C7 (engineered to express HER2) and NIH3T3C7 (as the control) cells are used for this assay. NIH3T3C7 cells are seeded at 2500 cells/well, […] in 10% CS+2 mM glutamine DMEM, in a 96 well plate; HER2C7 cells are seeded at 6000 cells/well, 100 μl/well in 2% FBS+2 mM glutamine DMEM, in a 96 well plate. Cells are incubated at 37° C., 5% CO2 overnight to allow for cell attachment to the plate;
(§4) 2. The TBST compound is added to the cells at day 2. The compounds are prepared in the appropriate growth medium (10% CS+2 mM) glutamine DMEM for NIH3T3C7 cells; 2% FBS+2 mM glutamine DMEM for HER2C7 cells) in a 96 well plate, and serially diluted. A total of 100 μl/well medium of the diluted compounds is added into the cells. The total volume of each well is 200 μl. Quadruplicates (wells) and 11 concentration points are applied to each compound tested.
(§5) 3. After the cells are treated with the compound for 4 days, the cells are washed with PBS and fixed with 200 μl/well ice-cold 10% TCA for one hour at 0-5° C. condition.
(§6) 4. Remove TCA and rinse wells […] with deionized water. Dry plates upside down with paper towels. […]
7. Read the plate at dual wavelengths at 570 nm and 630 nm on Dynatech Elisa plate reader.

[1] = test system: MCF7 cells overexpressing HER2 kinase (MCF7-HER2); experiment: MCF-7/HER-2 SRB Growth Assay; details: Homo sapiens, MCF7, 96 h; 0.5% FBS; 4 days; read-out: Cell Growth Assays, MCF7 Her-2 0.5% FBS
NIH3T3/IGF-1R cells = experiment: IGF-I Receptor Growth Assay, 3T3 IGF-1R cells; details: Mus musculus, 0.5% FBS, 10 nM IGF-1, read-out: Cell Growth Assays, 3T3 IGF-1R 0.5% FBS
Method: Assay 2: IGF-I Receptor Growth Assay
Materials And Methods. The following materials were used to conduct the IGF-I receptor growth assay:
(§7) a. The NIH3T3/IGF-1R (10% FBS/2 mM glutamine/DMEM) and NIH3T3 c7 (10% calf serum/2 mM glutamine/DMEM) cell lines were used wherein the NIH3T3 cells (and cells derived from them) were handled such that they were not allowed to become confluent, thus decreasing the likelihood of spontaneous transformation.
Using the above described materials, the following steps were performed under aseptic conditions until fixing the cells for the SRB assay:
(§8) Day 0: Cell Plating--Trypsinize and count NIH3T3/IGF-1R and NIH3T3 c7 cells. Dilute in growth media to 2000 cells/200 μl and seed flat bottom 96-well plates with 200 μl/well, one plate for two compounds for each cell line.
Day 1: Compound Preparation--Add DMSO to each compound to make 100 mM stock solutions.
NIH3T31IGF-1R cells--For each 96-well plate, make 15 ml of 10 nM IGF-1/0.5% FBS/2 mM glutamine/DMEM (30 μl of 5 μM IGF-1/15 ml).
Add 3 μl of 100 mM stock of each compound to a tube so 200 μM final. Shake or vortex until it goes into solution. If it is necessary to add additional medium, note the final concentration.
Do 2-fold dilutions (130 μl) from columns 12 to 3 on each plate (column 2 will be for the untreated control), mixing thoroughly. […]

NIH3T3 c7 cells = experiment: Cell growth assay, 3T3 control cells (beside 3T3 IGF-1R); details: Mus musculus, 10% FBS, column beside 3T3 IGF-1R, read-out: Cell Growth Assays, 3T3 10% FBS
Method: as §7, §8
Day 4: Refeed--Repeat steps above, adding exactly the same IGF-1 and compound concentration to each well as before.
Using wells in column 2 (treated with IGF-1 but not compound) as 100%, calculate percent of control for each concentration of compound.
Use a curve fit method to graph percent of control vs. log(molar concentration) and determine the IC50.

[2] = test system: HER2C7 cells (NIH3T3 engineered to express HER2); experiment: 3T3/HER2 Cell Growth Assay, 3T3 HER-2 cells; details: Mus musculus, NIH3T3, 96 h; 2% FBS; 4 days; read-out: Cell Growth Assays, 3T3 HER-2 2% FBS
Method: as §1, §2, §3, §4, §5, §6
7. Read the plate at dual wavelengths at 570 nm and 630 nm on Dynatech Elisa plate reader. […]

IC50 (MCF7 cells): 2000 nM
IC50 [1]: 800 nM
SMILES: COc1cccc2c1OC(c1ccc(F)cc1)C([N+](=O)[O-])=C2 (stereo not drawn) [Compound A, 2-(4-Fluorophenyl)-8-methoxy-3-nitro-1,2-benzopyran]
IC50 (NIH3T3C7 cells): 70000 nM
IC50 (NIH3T3/IGF-1R cells): 2500 nM
IC50 (NIH3T3 c7 cells): 5600 nM
IC50 [2]: 1800 nM
